Patent US7763660B2, “Inhibitors of Candida albicans” (The University of Vermont and State Agricultural College, priority 2003, dated 2010)

Tests used:
C. albicans cells = assay: small molecule screen for inhibitors of the Spider media-induced budded-to-hyphal transition; type: cell-based, Candida albicans
Method: For the screen, C. albicans cells were grown in YNB media that inhibits hyphal growth and then transferred to 384-well optical plates containing Spider media to induce the budded-to-hyphal transition and hyphal elongation. […] In FIG. 3, the indicated small molecules were added at the indicated concentrations at time 0 and growth was allowed to continue for 4 h at 37° C. before the cells were fixed and observed microscopically. YNB media is well known in the art and contains yeast nitrogen base (DIFCO Labs.), glucose (US Biological) and d-H2O. Spyder media is well known in the art and contains nutrient broth (DIFCO Labs.), mannitol (Sigma-Aldrich), K2HPO4 (Sigma-Aldrich) and d-H2O.
Next, small molecules were assayed for their ability to inhibit the Spider media-induced hyphal growth.
The basic microscopic screen was described in detail above. To identify inhibitors, C. albicans cells are initially grown in YNB media that inhibits hyphal growth and then transferred to 384-well optical assay plates containing Spider media to induce the transition to hyphae. Individual molecules from the Chembridge small molecule library (Kao, R. Y. T., et al., 2002, Proc. Natl. Acad. Sci. USA 99: 10066-10071), or other library, are transferred from a 384-well plate containing stock solutions to individual wells of the assay plates. For convenience, positive and negative controls may be located at each corner of the plate. These plates are incubated at 37° C. for 4 h to allow for hyphal elongation before the cells are fixed and screened. Screening occurs on an inverted Nikon microscope with a computer driven XY stage with DIC/Hoffman optics, digital SPOT® camera and automatic shutter. Pictures are automatically taken of each well with the plate number and well position embedded in the picture through a script written for OpenLab® image analysis software from Improvision (INVIVO, from QED Imaging, Inc.). Inhibitory molecules are identified by rapidly screening a picture of each well for the presence of budded cells and absence of hyphal cells. Each inhibitor is retested at both 4 h and 16 h to eliminate those compounds that are cytotoxic, delay hyphal formation, or delay elongation through a growth defect. Molecules that give consistent inhibition of the budded-to-hyphal transition with continued budded growth with no hyphae out to 16 are further characterized as described below. A dose-response for each molecule is established through serial dilutions in order to determine the threshold concentration of each molecule. Typical threshold concentrations range from about 1 to about 100 micromolar (μM). In addition, the reversibility of each molecule is tested by washing out the molecule and adding fresh Spider media; cells that resume hyphal growth indicate that the molecule is reversible in action and that the molecule's initial effects were not due to cytotoxicity.

[1] = Scott, V. R., et al., 1988; cited from earlier work

Structure (SMILES)	dose-dependence of the inhibition (C. albicans cells)	reversibility of the inhibition (C. albicans cells)	inhibition of the budded-to-hyphal transition and hyphal growth (C. albicans cells; 0.1 μM, 4 h at 37° C.)	inhibition of the budded-to-hyphal transition and hyphal growth (C. albicans cells; 1.6 μM added at time 0, 4 h at 37° C.)	anti-fungal activity [1]	cell phenotype in the screen (C. albicans cells; 4 h at 37° C. (FIG. 3))	cytotoxicity in the screen (C. albicans cells; 4 h at 37° C. (FIG. 3))
C/C1=C/C(=O)O[C@@H]2C[C@@H](CC[C@H](C)/C=C\C=C\CC1)O[C@@](O)([C@@H]1CSC(=O)N1)C2 [Lat A, latrunculin-A]	dose-dependent	reversible	effect was lost	inhibited the budded-to-hyphal transition and hyphal growth	–	–	–
C/C1=C\[C@H](C)C[C@H](C)OC(=O)C[C@H](c2ccc(O)cc2)NC(=O)[C@@H](Cc2c(Br)[nH]c3ccccc23)N(C)C(=O)[C@H](C)NC(=O)[C@@H](C)C1 [jasplakinolide]	–	–	–	–	previously shown to have anti-fungal activity	apparent cell-cycle arrest as small budded cells	dose-dependent cytotoxic molecule
